This is an account of results in PubChem BioAssay (NCI).

Structures are written as SMILES. Values joined by “and” are separate entries in the source; they are usually repeats but may differ in a detail not shown here. Equal entries are not always repeated.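 A five-concentration, 48-hour dose response in 96-well plates underlies each endpoint, interpolated linearly between surrounding concentrations. GI50 = concentration required for 50% inhibition of growth. TGI is the concentration that stops growth completely.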

The subject of the test is MDA-MB-468 breast. Briefly: NCI tumour cell line growth inhibition, 48 h.
As to `COc1cccc(C2C(C#N)=C(N)Oc3cc4c(cc32)OCO4)c1` (stereo not drawn), the GI50 was 24.4 nM and the TGI is 665 nM. Consider `NC(N)=N/N=C(/c1ccccc1)c1ccccc1F`, for which the TGI amounted to 4940 nM. As for `CNCc1ccc(-c2[nH]c3cc(F)cc4c3c2CCNC4=O)cc1`, the GI50 is 10800 nM and the TGI amounted to 25200 nM. For `COC(=O)c1ccc2[nH]c(O)c(C(=Nc3ccc(N(C)C(=O)CN4CCN(C)CC4)cc3)c3ccccc3)c2c1` the same measures were 1280 nM and 2990 nM.

As to `O=C(c1ccccc1)C(Br)C(Br)c1ccccc1` (stereo not drawn), the GI50 is 2070 nM and the TGI is 4650 nM. For `COc1cc(/C=C\c2cc(OC)c(OC)c(OC)c2)cc(NS(=O)(=O)c2ccc(Cl)cc2)c1OC`, in that order: 271 nM and 19400 nM. For `COc1ccc(/C=C/C(C)=N/OCC(=O)Nc2ccc(Cl)cc2)cc1`, in that order: 2520 nM and 8340 nM.

With `N#CCC1(n2cc(-c3ncnc4[nH]ccc34)cn2)CN(C2CCN(C(=O)c3ccnc(C(F)(F)F)c3F)CC2)C1`, the GI50 is 44200 nM and the TGI is greater than 100000 nM.

As for `COc1ccc(Cc2nc3cc(OC)c(OC)cc3c(=O)[nH]2)cc1`, the GI50 was 3320 nM and the TGI was 17100 nM.

Turning to `O=C(N/N=C/c1ccc(F)cc1)c1ccc(C(F)(F)F)nc1Nc1cccc(C(F)(F)F)c1`, the GI50 was 327 nM and the TGI is 1510 nM. For `CNCc1cccc2c1OCCOCCOCCC(C)S(=O)(=O)c1ccc(cc1)-c1cnc(N)c(n1)C(=O)N2` (stereo not drawn) the same measures were 1290 nM and 3710 nM. For `O=C(OC[C@@H]1CO1)c1cccc2c(=O)c3ccccc3[nH]c12` the same measures were 883 nM and 2790 nM. For `COc1ccc(/C(C)=C(\c2ccc(Cl)cc2)c2ccc(OCCN3CCCCCC3)cc2)cc1F`, in that order: 2650 nM and 5890 nM. `COc1cc(OC)cc(-c2ccc(-c3ccc(C(=N)N)cn3)s2)c1`: the GI50 was 1720 nM and the TGI is 3320 nM. For `Cc1cc(Nc2ccc(Cl)cc2)nc(NCCCNc2ccnc3cc(Cl)ccc23)n1` the same measures were 1610 nM and 3180 nM. For `CC1=C2[C@@H](CC1)[C@]1(C)O[C@@](C3CC3)(C[C@H]1OC(=O)CO)[C@H]2OC(=O)/C=C/c1ccccc1`, in that order: 14600 nM and 30600 nM. With `Nc1nc(=S)c2[nH]cnc2[nH]1`, the GI50 is 150 nM and 1040 nM; the TGI was 1230 nM and 8930 nM. Take `CCN(CC)CCNc1ccc([N+](=O)[O-])c2sc3cc(Cl)ccc3c(=O)c12`: the GI50 is 17300 nM and the TGI amounted to 61600 nM. For `COc1ccc(-c2cc(-c3ccccc3)nc(NCCNc3ccnc4cc(Cl)ccc34)n2)cc1` the same measures were 300 nM and 1210 nM. For the compound `Cc1ccnc(Nc2ccc([N+](=O)[O-])c(NCCN3CCOCC3)n2)c1`, the GI50 was 18.5 nM and 27.3 nM.

In the case of `Clc1ccc2c(NCCCN3CCN(c4nc(N5CCOCC5)nc5ccccc45)CC3)ccnc2c1`, the GI50 was 1830 nM and the TGI is 3660 nM.

Take `C#CC#CC#CC#CC#CC#CC#CC#CC[C@@H]1OC[C@@H](COC(=O)O[C@@H](C(=O)O[C@H]2C[C@@]3(O)[C@@H](OC(=O)c4ccccc4)[C@@H]4[C@]5(OC(C)=O)CO[C@@H]5C[C@H](O)[C@@]4(C)C(=O)[C@H](OC(C)=O)C(=C2C)C3(C)C)[C@@H](NC(=O)c2ccccc2)c2ccccc2)O1`: the GI50 was 108 nM and the TGI is 560 nM. For `COc1ccc(/C=C\c2cc(OC)c(OC)c(OC)c2)c(NS(=O)(=O)c2ccc(C(C)(C)C)cc2)c1O`, in that order: 304 nM and 22700 nM. For `CCSc1ncc(Br)c(Sc2nc(N)nc3nc[nH]c23)n1` the same measures were 1720 nM and 7810 nM.

For `NC(=O)c1ncn(C2OC(CO)C(O)C2O)c1N` (stereo not drawn), the GI50 was 75600 nM and the TGI was greater than 100000 nM. For `N#CC(NC(=O)CCl)=C(Cl)Cl`, the GI50 is 1330 nM and the TGI was 3480 nM.

As to `CC1(C)CC[C@]2(C(=O)O)CC[C@]3(C)C(=CC[C@@H]4[C@@]5(C)C/C(=C/c6ccco6)C(=O)C(C)(C)[C@@H]5CC[C@]43C)[C@@H]2C1`, the GI50 is 3290 nM and the TGI is 30900 nM. Regarding `CCN1CCN(c2nc(NNC(=O)c3ccccc3)nc(N3CCN(C(c4ccccc4)c4ccccc4)CC3)n2)CC1`, the GI50 is 1940 nM and the TGI amounted to 4690 nM. For `CCOc1ccc(Nc2nc(-c3c(C)nc4ncccn34)cs2)cc1`, in that order: 303 nM and 15000 nM. For `COc1ccc(OCC(O)CN2CCN(c3ccc(Cl)cc3)CC2)cc1` (stereo not drawn) the same measures were 8930 nM and greater than 100000 nM. Consider `Cn1ccnc1C(=O)/C=C/c1ccc(C(=O)Nc2c(F)c(F)c(F)c(F)c2F)cc1`, for which the GI50 is 1720 nM and the TGI came to 4330 nM. For `CC1=C(CNO)C2=C(C)C3(CC3)[C@@](C)(O)C(=O)C2=C1`, in that order: 319 nM and 920 nM.

As to `CN(C)c1ccc(N=C2C=CC(=C(C#N)C#N)c3ccccc32)cc1`, the GI50 was 393 nM and the TGI was 2350 nM. For `N/C(=N\C(N)=N\c1nc2ccccc2s1)c1cnccn1` the same measures were 2470 nM and 6070 nM.

With `C#Cc1cccc(NC(=O)C2CCCN(C(=O)CCl)C2)c1` (stereo not drawn), the GI50 is greater than 82500 nM and the TGI is greater than 82500 nM.
